Assay results: ChEMBL document CHEMBL3734681, “Sortase A Inhibitors: Recent Advances and Future Perspectives” (J Med Chem, 2015)
In brackets after ≈: the same amount, converted by molar mass.

Tests used:
[1] = Inhibition of Staphylococcus aureus ATCC 6538p SrtA by spectrometery
[2] = Inhibition of Staphylococcus aureus SrtA by FRET assay
[3] = Inhibition of Bacillus anthracis SrtA
[4] = Inhibition of Staphylococcus aureus SrtA after 2 hrs
[5] = Inhibition of Staphylococcus aureus ATCC 6538p recombinant SrtA after 1 hr by spectrometery using Dabcyl-QALPETGEE-Edans as substrate
[6] = Inhibition of Staphylococcus aureus SrtA
[7] = Competitive inhibition of Staphylococcus aureus ATCC 6538p recombinant SrtA by spectrometery using Dabcyl-QALPETGEE-Edans as substrate

COc1cc(/C=C/C(=O)CC(=O)/C=C/c2ccc(O)c(OC)c2)ccc1O [CURCUMIN]
IC50 [1]: 13.8 µg/mL (≈ 37.5 µM)

O=C(O)COc1ccccc1C1Nc2cccc3cccc(c23)N1
IC50 [2]: 15.12 µg/mL (≈ 47.2 µM)

CN(C)CCC(=O)c1ccc(Cl)c(Cl)c1
IC50 [3]: 5.6 µM
IC50 [4]: 15 µM

COc1ccc(/C=C(\C#N)c2ccc(OC)cc2)cc1
IC50 ([5]; read-out: IC50): 28 µM

CN(C)CCC(=O)c1cccs1
IC50 [3]: 4.8 µM
IC50 [4]: 47 µM

C=C(C)[C@H](CCC(C)(C)O)Cc1c(O)cc(OC)c2c1O[C@H](c1ccc(O)cc1O)CC2=O [KURARINOL]
IC50 [6]: 48.8 µg/mL (≈ 107 µM)

Clc1ccccc1-c1nn2c(-c3ccncc3)nnc2s1
IC50 [6]: 11.78 µg/mL (≈ 37.5 µM)

COc1ccc(/C(C#N)=C/c2cc(OC)ccc2OC)cc1
IC50 ([5]; read-out: IC50): 9.2 µM
Ki [7]: 6.81 µM

COc1ccc2cc3[n+](cc2c1OC)CCc1cc2c(cc1-3)OCO2.[Cl-] [BERBERINE CHLORIDE]
IC50 [5]: 8.7 µg/mL

CC[C@H](CC[C@@H](C)[C@H]1CC[C@H]2[C@@H]3CC[C@@H]4C[C@@H](O[C@@H]5O[C@H](CO)[C@@H](O)[C@H](O)[C@H]5O)CC[C@]4(C)[C@H]3CC[C@]12C)C(C)C
IC50 [5]: 18.3 µg/mL

COC(=O)/C(=C/c1ccc(OC)cc1)c1ccc(OC)cc1
IC50 ([5]; read-out: IC50): 231 µM
